How the values were obtained:
Type in all cases: cell-based
Bcl-xL = target: T1, Bcl-xL (Homo sapiens, UniProt Q07817); assay: HCT116 Bcl-xL degradation, capillary-based immunoassay (WES); settings: for DC50: HCT116, 24 h, 9-point serial dilution; for remaining activity at 0.01 µM / remaining activity at 0.1 µM: HCT-116, 24 h, % of untreated cells; for remaining activity at 0.01 µM: HCT116, 10 nM; for remaining activity at 0.1 µM: HCT116, 100 nM
T1 construct: Measured levels of Bcl-xL protein of HCT116 cells treated with the tested compounds; host or cells: HCT116
T1 sequence (Q07817 whole entry): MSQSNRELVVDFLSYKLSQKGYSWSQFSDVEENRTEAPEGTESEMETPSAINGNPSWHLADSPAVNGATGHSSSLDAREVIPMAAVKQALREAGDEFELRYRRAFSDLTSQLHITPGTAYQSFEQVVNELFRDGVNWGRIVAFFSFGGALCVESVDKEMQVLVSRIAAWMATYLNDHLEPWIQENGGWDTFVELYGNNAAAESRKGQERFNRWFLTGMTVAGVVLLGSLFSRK
Outline: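 Bcl-xL protein level by capillary WES immunoassay in HCT116 lysates, as % of untreated after cofilin normalization. Compound exposure was 24 h at 10 and 100 nM and/or a 9-point series, in quadruplicate. Four-parameter fitting gave the DC50.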

MOLT-4 cells = assay: MOLT-4 cell viability, MTT assay; settings: Homo sapiens, MOLT-4, 48 h
Outline: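 MOLT-4 cells in RPMI 1640 with 10% FBS were exposed to compounds for 48 h at 9 concentrations (3.16-fold dilutions, triplicates). After 4 h with MTT and overnight SDS/HCl solubilisation, absorbance was read at 540 nm. IC50 came from four-parameter fits versus control, as the mean of ≥2 independent experiments.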

COR-L105 = assay: CellTiter-Glo proliferation assay, COR-L105; settings: COR-L105, 5 days
Outline: (§1)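 Both lines grown in RPMI-1640 + 10% FBS. COR-L105 plated flat at 1,000 cells/well overnight; NCI-H1650 grown as spheroids, 3,000 cells/well, 72 h. Compounds at 0.508 nM-10 μM final for 5 days, 37° C. ATP read by CellTiter-Glo (3D version for spheroids); IC50 from variable-slope fit normalized to untreated cells.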

NCI-H1650 = assay: CellTiter-Glo 3D proliferation assay, NCI-H1650 spheroids; settings: 5 days
Outline: as §1

| Structure (SMILES) | DC50 (Bcl-xL) [nM] | remaining activity at 0.01 µM (Bcl-xL) [%] | remaining activity at 0.1 µM (Bcl-xL) [%] | IC50 (MOLT-4 cells) [nM] | IC50 (NCI-H1650) [nM] | IC50 (NCI-H1650; Homo sapiens, NCI-H1650, 120 h) [nM] | IC50 (COR-L105) [nM] | IC50 (COR-L105; Homo sapiens, COR-L105, 120 h) [nM] | Emax (COR-L105; Homo sapiens, COR-L105, 120 h, read-out: COR-L105 Span (max)) [%] | Emax (NCI-H1650; Homo sapiens, NCI-H1650, 120 h, read-out: NCI-H1650 Span (Amax)) [%] |
| --- | --- | --- | --- | --- | --- | --- | --- | --- | --- | --- |
| Cc1ncsc1-c1ccc(CNC(=O)C2C[C@@H](O)CN2C(=O)C(NC(=O)CCCCCC(=O)N2CCN(CC#Cc3ccc(OCCCc4sc(N5CCCc6c5nnc(Nc5nc7ccccc7s5)c6C)nc4C(=O)O)c(F)c3)CC2)C(C)(C)C)cc1 (stereo in doubt) [Example 15, 2-[3-(1,3-benzothiazol-2-ylamino)-4-methyl-6,7-dihydro-5H-pyrido[2,3-c]pyridazin-8-yl]-5-[3-[2-fluoro-4-[3-[4-[7-[[(1S)-1-[(2S,4R)-4-hydroxy-2-[[4-(4-methylthiazol-5-yl)phenyl]methylcarbamoyl]pyrrolidine-1-carbonyl]-2,2-dimethyl-propyl]amino]-7-oxo-heptanoyl]piperazin-1-yl]prop-1-ynyl]phenoxy]propyl] thiazole-4-carboxylic acid] | 0.462 | 39 | 23 | 5.67 | – | – | – | – | – | – |
| Cc1ncsc1-c1ccc([C@H](C)NC(=O)[C@@H]2C[C@@H](O)CN2C(=O)[C@@H](NC(=O)CCCCCCCCCCCCCCCN(C)CCOC23CC4(C)CC(C)(CC(Cn5ncc(-c6ccc(N7CCCc8c7nnc(Nc7nc9ccccc9s7)c8C)nc6C(=O)O)c5C)(C4)C2)C3)C(C)(C)C)cc1 [Example 1, 6-[3-(1,3-benzothiazol-2-ylamino)-4-methyl-6,7-dihydro-5H-pyrido[2,3-c]pyridazin-8-yl]-3-[1-[[3-[2-[[16-[[(1S)-1-[(2S,4R)-4-hydroxy-2-[[(1S)-1-[4-(4-methylthiazol-5-yl)phenyl]ethyl]carbamoyl]pyrrolidine-1-carbonyl]-2,2-dimethyl-propyl]amino]-16-oxo-hexadecyl]-methyl-amino]ethoxy]-5,7-dimethyl-1-adamantyl]methyl]-5-methyl-pyrazol-4-yl]pyridine-2-carboxylic acid] | 0.329 | 21 | 9 | 0.636 | – | – | – | – | – | – |
| Cc1ncsc1-c1ccc([C@H](C)NC(=O)[C@@H]2C[C@@H](O)CN2C(=O)[C@@H](NC(=O)CCCCCCCCN(C)CCOC23CC4(C)CC(C)(CC(Cn5ncc(-c6ccc(N7CCCc8c7nnc(Nc7nc9ccccc9s7)c8C)nc6C(=O)O)c5C)(C4)C2)C3)C(C)(C)C)cc1 [Example 5, 6-[3-(1,3-benzothiazol-2-ylamino)-4-methyl-6,7-dihydro-5H-pyrido[2,3-c]pyridazin-8-yl]-3-[1-[[3-[2-[[9-[[(1S)-1-[(2S,4R)-4-hydroxy-2-[[(1S)-1-[4-(4-methylthiazol-5-yl)phenyl]ethyl]carbamoyl]pyrrolidine-1-carbonyl]-2,2-dimethyl-propyl]amino]-9-oxo-nonyl]-methyl-amino]ethoxy]-5,7-dimethyl-1-adamantyl]methyl]-5-methyl-pyrazol-4-yl]pyridine-2-carboxylic acid] | 2.45 | 54 | 19 | 3.58 | – | – | – | – | – | – |
| Cc1ncsc1-c1ccc([C@H](C)NC(=O)[C@@H]2C[C@@H](O)CN2C(=O)[C@@H](NC(=O)CCCCCCCN(C)CCOC23CC4(C)CC(C)(CC(Cn5ncc(-c6ccc(N7CCCc8c7nnc(Nc7nc9ccccc9s7)c8C)nc6C(=O)O)c5C)(C4)C2)C3)C(C)(C)C)cc1 [Example 6, 6-[3-(1,3-benzothiazol-2-ylamino)-4-methyl-6,7-dihydro-5H-pyrido[2,3-c]pyridazin-8-yl]-3-[1-[[3-[2-[[8-[[(1S)-1-[(2S,4R)-4-hydroxy-2-[[(1S)-1-[4-(4-methylthiazol-5-yl)phenyl]ethyl]carbamoyl]pyrrolidine-1-carbonyl]-2,2-dimethyl-propyl]amino]-8-oxo-octyl]-methyl-amino]ethoxy]-5,7-dimethyl-1-adamantyl]methyl]-5-methyl-pyrazol-4-yl]pyridine-2-carboxylic acid] | 2.94 | 69 | 22 | 6.57 | – | – | – | – | – | – |

Second part, led by results:

| DC50 (Bcl-xL) [nM] | remaining activity at 0.01 µM (Bcl-xL) [%] | remaining activity at 0.1 µM (Bcl-xL) [%] | IC50 (MOLT-4 cells) [nM] | IC50 (NCI-H1650) [nM] | IC50 (NCI-H1650; Homo sapiens, NCI-H1650, 120 h) [nM] | Structure (SMILES) | IC50 (COR-L105) [nM] | IC50 (COR-L105; Homo sapiens, COR-L105, 120 h) [nM] | Emax (COR-L105; Homo sapiens, COR-L105, 120 h, read-out: COR-L105 Span (max)) [%] | Emax (NCI-H1650; Homo sapiens, NCI-H1650, 120 h, read-out: NCI-H1650 Span (Amax)) [%] |
| --- | --- | --- | --- | --- | --- | --- | --- | --- | --- | --- |
| > 316 | 75 | 44 | 2.64 | 92.9 | 95 | Cc1ncsc1-c1ccc(CNC(=O)[C@@H]2CC(O)CN2C(=O)C(NC(=O)CCCCCCC(=O)N2CCN(CCOC34CC5(C)CC(C)(CC(Cn6ncc(-c7ccc(N8CCCc9c8nnc(Nc8nc%10ccccc%10s8)c9C)nc7C(=O)O)c6C)(C5)C3)C4)CC2)C(C)(C)C)cc1 (stereo in doubt) [Example 24, 6-[3-(1,3-benzothiazol-2-ylamino)-4-methyl-6,7-dihydro-5H-pyrido[2,3-c]pyridazin-8-yl]-3-[1-[[3-[2-[4-[8-[[(1S)-1-[(2S,4R)-4-hydroxy-2-[[4-(4-methylthiazol-5-yl)phenyl]methylcarbamoyl]pyrrolidine-1-carbonyl]-2,2-dimethyl-propyl]amino]-8-oxo-octanoyl]piperazin-1-yl]ethoxy]-5,7-dimethyl-1-adamantyl]methyl]-5-methyl-pyrazol-4-yl]pyridine-2-carboxylic acid] | 348 | 500 | 104 | 89.1 |
| 1.22 | 11 | 6 | 8.04 | – | – | Cc1ncsc1-c1ccc([C@H](C)NC(=O)C2CC(O)CN2C(=O)C(NC(=O)CCCCCCCCCCCN2CCN(CC#Cc3ccc(OCCCc4sc(N5CCCc6c5nnc(Nc5nc7ccccc7s5)c6C)nc4C(=O)O)c(F)c3)CC2)C(C)(C)C)cc1 (stereo in doubt) [Example 31, 2-[3-(1,3-benzothiazol-2-ylamino)-4-methyl-6,7-dihydro-5H-pyrido[2,3-c]pyridazin-8-yl]-5-[3-[2-fluoro-4-[3-[4-[12-[[(1S)-1-[(2S,4R)-4-hydroxy-2-[[(1S)-1-[4-(4-methylthiazol-5-yl)phenyl]ethyl]carbamoyl]pyrrolidine-1-carbonyl]-2,2-dimethyl-propyl]amino]-12-oxo-dodecyl]piperazin-1-yl]prop-1-ynyl]phenoxy]propyl] thiazole-4-carboxylic acid] | – | – | – | – |
